Measurements from ChEMBL document CHEMBL5653615 (J Biol Chem, 2013).
The source made the active and inactive calls. The calls are words filed in the database; no cut-off is given here.

Experiments:
[1] = target: Rho-associated protein kinase 1 (Homo sapiens) (UniProt Q13464); assay: Inhibition of human ROCK1 at 500 nM by HotSpot assay relative to control
[2] = target: Mitogen-activated protein kinase kinase kinase 20 (Homo sapiens) (UniProt Q9NYL2); assay: Inhibition of human MLTK at 500 nM by HotSpot assay relative to control
[3] = target: MAP kinase-interacting serine/threonine-protein kinase 1 (Homo sapiens) (UniProt Q9BUB5); assay: Inhibition of human MNK1 at 500 nM by HotSpot assay relative to control
[4] = target: Calcium/calmodulin-dependent protein kinase type II subunit alpha (Homo sapiens) (UniProt Q9UQM7); assay: Inhibition of human CAMK2a at 500 nM by HotSpot assay relative to control
[5] = Inhibition of mono-phosphorylated human Insulin receptor (978 to 1283 residues) C981S mutant kinase domain expressed in baculovirus infected Sf9 cells incubated for 1 hr by [gamma-33P]ATP assay
[6] = target: Activin receptor type-1-like (Homo sapiens) (UniProt P37023); assay: Inhibition of human ALK1 at 500 nM by HotSpot assay relative to control
[7] = target: Wee1-like protein kinase (Homo sapiens) (UniProt P30291); assay: Inhibition of human WEE1 at 500 nM by HotSpot assay relative to control
[8] = target: Casein kinase I isoform gamma-3 (Homo sapiens) (UniProt Q9Y6M4); assay: Inhibition of human CK1g3 at 500 nM by HotSpot assay relative to control
[9] = target: RAC-beta serine/threonine-protein kinase (Homo sapiens) (UniProt P31751); assay: Inhibition of human AKT2 at 500 nM by HotSpot assay relative to control
[10] = target: Activated CDC42 kinase 1 (Homo sapiens) (UniProt Q07912); assay: Inhibition of human ACK1 at 500 nM by HotSpot assay relative to control
[11] = target: MAP kinase-activated protein kinase 5 (Homo sapiens) (UniProt Q8IW41); assay: Inhibition of human MAPKAPK5 at 500 nM by HotSpot assay relative to control
[12] = target: T1, Serine/threonine-protein kinase haspin (Homo sapiens) (UniProt Q8TF76); assay: Inhibition of human Haspin at 500 nM by HotSpot assay relative to control
T1 sequence (whole entry): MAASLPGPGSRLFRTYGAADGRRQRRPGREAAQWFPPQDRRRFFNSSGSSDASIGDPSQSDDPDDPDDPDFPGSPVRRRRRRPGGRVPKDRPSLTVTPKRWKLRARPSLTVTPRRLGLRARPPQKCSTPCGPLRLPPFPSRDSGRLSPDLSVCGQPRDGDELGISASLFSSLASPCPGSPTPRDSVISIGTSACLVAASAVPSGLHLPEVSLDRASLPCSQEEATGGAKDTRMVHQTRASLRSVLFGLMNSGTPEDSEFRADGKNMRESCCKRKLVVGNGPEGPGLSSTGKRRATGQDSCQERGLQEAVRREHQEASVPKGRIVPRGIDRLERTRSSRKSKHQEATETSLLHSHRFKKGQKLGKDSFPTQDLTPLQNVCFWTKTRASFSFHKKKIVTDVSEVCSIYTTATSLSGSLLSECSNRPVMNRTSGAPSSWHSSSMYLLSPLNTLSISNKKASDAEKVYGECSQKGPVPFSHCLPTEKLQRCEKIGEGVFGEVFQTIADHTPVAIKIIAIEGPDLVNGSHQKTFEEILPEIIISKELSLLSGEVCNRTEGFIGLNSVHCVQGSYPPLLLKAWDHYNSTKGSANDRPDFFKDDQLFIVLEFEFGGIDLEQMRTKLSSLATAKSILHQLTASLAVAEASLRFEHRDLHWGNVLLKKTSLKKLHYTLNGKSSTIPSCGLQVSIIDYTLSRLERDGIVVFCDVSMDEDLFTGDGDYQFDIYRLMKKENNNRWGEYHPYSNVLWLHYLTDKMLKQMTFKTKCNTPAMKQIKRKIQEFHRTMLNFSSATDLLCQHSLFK

[13] = target: Tyrosine-protein kinase receptor UFO (Homo sapiens) (UniProt P30530); assay: Inhibition of human AXL at 500 nM by HotSpot assay relative to control
[14] = target: Serine/threonine-protein kinase MRCK beta (Homo sapiens) (UniProt Q9Y5S2); assay: Inhibition of human CDC42BPB at 500 nM by HotSpot assay relative to control
[15] = target: High affinity nerve growth factor receptor (Homo sapiens) (UniProt P04629); assay: Inhibition of human TRKA at 500 nM by HotSpot assay relative to control
[16] = target: T2, Serine/threonine-protein kinase Nek3 (Homo sapiens) (UniProt P51956); assay: Inhibition of human NEK3 at 500 nM by HotSpot assay relative to control
T2 sequence (whole entry): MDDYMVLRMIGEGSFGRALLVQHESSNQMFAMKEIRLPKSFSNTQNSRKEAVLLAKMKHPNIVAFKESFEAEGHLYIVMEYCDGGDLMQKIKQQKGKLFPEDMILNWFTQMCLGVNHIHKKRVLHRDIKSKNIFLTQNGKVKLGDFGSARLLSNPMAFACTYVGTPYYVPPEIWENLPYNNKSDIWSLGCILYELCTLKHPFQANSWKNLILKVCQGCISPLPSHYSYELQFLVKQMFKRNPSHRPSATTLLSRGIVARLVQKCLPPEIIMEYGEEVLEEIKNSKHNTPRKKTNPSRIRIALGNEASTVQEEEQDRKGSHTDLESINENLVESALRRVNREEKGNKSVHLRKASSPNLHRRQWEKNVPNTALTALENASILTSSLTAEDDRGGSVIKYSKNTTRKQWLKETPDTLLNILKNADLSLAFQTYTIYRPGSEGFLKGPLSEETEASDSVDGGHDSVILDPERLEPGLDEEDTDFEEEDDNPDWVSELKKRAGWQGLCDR

Rho-associated protein kinase 1 (Homo sapiens), sequence (Q13464 2-1354 limits assumed): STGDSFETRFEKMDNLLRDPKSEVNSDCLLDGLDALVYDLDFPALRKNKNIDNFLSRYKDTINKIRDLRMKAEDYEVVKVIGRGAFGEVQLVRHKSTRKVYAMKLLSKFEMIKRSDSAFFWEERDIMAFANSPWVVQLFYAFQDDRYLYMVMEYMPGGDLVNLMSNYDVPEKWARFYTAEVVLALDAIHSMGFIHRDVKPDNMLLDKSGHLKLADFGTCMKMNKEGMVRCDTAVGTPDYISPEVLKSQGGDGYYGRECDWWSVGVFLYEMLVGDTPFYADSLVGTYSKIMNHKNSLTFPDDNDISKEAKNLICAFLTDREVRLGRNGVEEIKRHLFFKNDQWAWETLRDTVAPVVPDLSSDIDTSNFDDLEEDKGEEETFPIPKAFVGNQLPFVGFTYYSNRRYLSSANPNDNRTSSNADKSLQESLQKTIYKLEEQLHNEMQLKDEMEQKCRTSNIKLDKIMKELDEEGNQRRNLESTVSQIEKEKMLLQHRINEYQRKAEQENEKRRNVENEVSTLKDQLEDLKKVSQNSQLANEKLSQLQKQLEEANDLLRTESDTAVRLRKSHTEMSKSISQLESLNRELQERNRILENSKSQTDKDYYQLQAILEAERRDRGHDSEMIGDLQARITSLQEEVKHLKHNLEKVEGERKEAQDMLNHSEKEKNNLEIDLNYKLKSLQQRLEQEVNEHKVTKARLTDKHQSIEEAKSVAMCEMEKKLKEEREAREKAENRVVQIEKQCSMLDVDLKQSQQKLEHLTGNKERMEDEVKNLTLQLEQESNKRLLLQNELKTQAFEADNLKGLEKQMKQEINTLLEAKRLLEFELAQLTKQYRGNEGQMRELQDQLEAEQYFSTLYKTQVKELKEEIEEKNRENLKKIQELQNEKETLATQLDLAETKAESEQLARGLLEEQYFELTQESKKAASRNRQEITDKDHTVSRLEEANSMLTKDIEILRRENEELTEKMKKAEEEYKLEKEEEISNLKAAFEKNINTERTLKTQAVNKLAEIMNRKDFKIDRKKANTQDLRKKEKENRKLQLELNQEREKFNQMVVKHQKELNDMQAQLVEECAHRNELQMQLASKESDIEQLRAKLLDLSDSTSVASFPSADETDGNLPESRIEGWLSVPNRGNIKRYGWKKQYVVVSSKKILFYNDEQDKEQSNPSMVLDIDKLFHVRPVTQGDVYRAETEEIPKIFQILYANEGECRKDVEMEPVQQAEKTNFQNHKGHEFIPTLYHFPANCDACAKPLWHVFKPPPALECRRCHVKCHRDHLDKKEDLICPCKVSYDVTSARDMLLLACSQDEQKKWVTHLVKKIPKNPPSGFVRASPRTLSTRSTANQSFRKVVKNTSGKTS
Activated CDC42 kinase 1 (Homo sapiens), sequence (Q07912 whole entry, looked up): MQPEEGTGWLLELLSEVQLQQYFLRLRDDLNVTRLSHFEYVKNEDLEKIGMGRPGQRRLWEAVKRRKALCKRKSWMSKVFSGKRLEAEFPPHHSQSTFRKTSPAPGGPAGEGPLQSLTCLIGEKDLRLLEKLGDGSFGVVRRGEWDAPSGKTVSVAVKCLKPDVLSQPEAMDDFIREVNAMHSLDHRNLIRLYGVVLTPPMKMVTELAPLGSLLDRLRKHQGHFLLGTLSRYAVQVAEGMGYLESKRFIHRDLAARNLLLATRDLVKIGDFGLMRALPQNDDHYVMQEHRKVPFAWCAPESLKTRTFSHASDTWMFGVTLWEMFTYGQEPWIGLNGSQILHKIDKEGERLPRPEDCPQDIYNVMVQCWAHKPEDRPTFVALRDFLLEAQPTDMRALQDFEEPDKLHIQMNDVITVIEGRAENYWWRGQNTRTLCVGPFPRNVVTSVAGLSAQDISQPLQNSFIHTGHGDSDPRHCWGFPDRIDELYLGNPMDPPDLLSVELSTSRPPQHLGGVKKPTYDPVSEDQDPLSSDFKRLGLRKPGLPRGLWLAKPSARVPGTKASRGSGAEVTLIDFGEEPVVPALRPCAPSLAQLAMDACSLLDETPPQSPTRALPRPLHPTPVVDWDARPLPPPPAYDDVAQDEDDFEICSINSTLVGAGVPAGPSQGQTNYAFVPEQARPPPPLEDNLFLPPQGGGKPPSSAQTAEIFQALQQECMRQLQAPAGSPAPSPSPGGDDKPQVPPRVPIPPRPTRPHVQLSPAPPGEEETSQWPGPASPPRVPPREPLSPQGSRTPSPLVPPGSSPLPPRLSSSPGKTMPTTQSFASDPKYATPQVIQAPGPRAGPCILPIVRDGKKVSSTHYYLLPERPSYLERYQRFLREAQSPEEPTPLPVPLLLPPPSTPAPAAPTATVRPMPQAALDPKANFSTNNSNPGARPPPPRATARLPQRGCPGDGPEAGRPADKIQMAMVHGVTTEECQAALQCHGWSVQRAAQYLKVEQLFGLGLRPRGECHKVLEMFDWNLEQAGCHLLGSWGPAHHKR
Activin receptor type-1-like (Homo sapiens), sequence (P37023 whole entry): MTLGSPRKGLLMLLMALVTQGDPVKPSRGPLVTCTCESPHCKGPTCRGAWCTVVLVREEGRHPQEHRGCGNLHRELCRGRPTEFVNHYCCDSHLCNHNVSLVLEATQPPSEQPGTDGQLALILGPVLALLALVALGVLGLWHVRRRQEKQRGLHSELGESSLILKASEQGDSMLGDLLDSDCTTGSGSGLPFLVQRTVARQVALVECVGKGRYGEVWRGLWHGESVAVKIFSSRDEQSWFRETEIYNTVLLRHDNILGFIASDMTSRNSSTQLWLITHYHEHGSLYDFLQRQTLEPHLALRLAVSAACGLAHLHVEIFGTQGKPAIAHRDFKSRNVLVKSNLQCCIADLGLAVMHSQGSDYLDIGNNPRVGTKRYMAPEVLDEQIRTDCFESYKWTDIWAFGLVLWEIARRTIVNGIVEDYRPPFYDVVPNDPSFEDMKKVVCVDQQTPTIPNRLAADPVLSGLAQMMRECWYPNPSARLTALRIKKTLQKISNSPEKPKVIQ
MAP kinase-interacting serine/threonine-protein kinase 1 (Homo sapiens), sequence (Q9BUB5 whole entry, looked up): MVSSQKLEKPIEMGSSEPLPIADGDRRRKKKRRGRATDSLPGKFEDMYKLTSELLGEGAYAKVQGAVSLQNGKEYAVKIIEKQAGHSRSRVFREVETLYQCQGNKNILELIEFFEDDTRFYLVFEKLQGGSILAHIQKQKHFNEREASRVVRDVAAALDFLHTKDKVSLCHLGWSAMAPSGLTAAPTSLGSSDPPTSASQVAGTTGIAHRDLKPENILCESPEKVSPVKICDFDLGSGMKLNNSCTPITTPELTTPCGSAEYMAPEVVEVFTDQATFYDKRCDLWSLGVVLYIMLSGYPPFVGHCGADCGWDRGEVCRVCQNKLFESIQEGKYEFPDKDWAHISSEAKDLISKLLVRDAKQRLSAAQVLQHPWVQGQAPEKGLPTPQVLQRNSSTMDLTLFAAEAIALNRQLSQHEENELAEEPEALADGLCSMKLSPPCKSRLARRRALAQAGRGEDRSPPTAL
Tyrosine-protein kinase receptor UFO (Homo sapiens), sequence (P30530 whole entry): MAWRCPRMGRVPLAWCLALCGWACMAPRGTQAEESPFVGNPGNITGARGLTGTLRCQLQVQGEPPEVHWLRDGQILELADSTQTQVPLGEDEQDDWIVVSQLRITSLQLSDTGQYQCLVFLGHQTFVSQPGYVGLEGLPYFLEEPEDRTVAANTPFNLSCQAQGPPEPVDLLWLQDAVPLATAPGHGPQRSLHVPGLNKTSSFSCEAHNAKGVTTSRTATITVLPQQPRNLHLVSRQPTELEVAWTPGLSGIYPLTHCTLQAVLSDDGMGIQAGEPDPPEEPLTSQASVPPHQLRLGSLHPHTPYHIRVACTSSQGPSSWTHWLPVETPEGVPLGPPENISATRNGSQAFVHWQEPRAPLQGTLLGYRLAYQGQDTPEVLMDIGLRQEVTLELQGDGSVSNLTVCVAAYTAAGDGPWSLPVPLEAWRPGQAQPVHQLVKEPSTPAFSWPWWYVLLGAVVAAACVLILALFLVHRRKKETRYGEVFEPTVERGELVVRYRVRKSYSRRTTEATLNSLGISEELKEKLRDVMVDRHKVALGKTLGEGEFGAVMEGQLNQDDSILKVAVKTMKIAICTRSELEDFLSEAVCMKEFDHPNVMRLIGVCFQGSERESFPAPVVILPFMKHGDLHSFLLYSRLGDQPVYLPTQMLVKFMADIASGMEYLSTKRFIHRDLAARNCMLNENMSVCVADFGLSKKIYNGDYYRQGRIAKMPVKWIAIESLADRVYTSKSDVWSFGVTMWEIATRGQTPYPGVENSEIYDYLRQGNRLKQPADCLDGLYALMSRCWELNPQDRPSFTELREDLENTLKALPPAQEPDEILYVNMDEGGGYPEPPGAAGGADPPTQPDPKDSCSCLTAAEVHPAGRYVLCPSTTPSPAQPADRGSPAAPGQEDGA
MAP kinase-activated protein kinase 5 (Homo sapiens), sequence (Q8IW41 whole entry): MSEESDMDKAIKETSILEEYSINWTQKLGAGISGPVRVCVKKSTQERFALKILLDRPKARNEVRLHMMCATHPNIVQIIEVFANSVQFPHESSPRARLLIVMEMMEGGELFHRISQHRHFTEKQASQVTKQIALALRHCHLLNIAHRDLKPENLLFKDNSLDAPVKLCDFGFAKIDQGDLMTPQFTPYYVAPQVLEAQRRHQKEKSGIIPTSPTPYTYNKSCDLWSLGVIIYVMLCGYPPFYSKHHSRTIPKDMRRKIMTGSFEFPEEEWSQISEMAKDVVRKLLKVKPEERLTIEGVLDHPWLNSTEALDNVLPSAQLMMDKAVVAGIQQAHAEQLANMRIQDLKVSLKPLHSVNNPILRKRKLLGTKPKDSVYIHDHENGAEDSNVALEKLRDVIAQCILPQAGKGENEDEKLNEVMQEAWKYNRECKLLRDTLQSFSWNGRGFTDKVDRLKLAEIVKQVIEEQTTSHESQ

Row | Structure (SMILES) | inhibition [1] [%] | inhibition [2] [%] | inhibition [3] [%] | inhibition [4] [%] | inhibition [5] | inhibition [6] [%] | inhibition [7] [%] | inhibition [8] [%] | inhibition [9] [%] | inhibition [10] [%] | inhibition [11] [%] | inhibition [12] [%] | inhibition [13] [%] | inhibition [14] [%] | inhibition [15] [%] | inhibition [16] [%]
1 | Nc1n[nH]c2nnc(-c3c(-c4ccccc4)nn4ccccc34)cc12 | -0.45 | -1.29 | 1.48 | -2.07 | Active | -6.11 | 7.57 | 6.29 | 2.47 | 17.3 | 2.31 | 2.91 | 0.88 | 6.62 | -1.03 | 17.3
2 | Oc1n[nH]c2nnc(-c3c(-c4ccccc4)nn4ccccc34)cc12 | 3.01 | -0.11 | 0.89 | -5.26 | Active | -0.63 | 20.8 | -4.44 | -5.44 | 8.98 | 4.74 | 11.6 | -1.44 | 4.33 | 4.28 | 12.8
